Reference: PMC8575619, “Cytotoxic and Antifungal Amides Derived from Ferulic Acid: Molecular Docking and Mechanism of Action” (BioMed Research International, 2021)
Converted amounts (≈) assume the structure as drawn. “And” between values parts separate entries of the source, which are not always exact repeats. Identical values can stand only once. Like-named read-outs stand apart in the source and are kept apart here.

Key:
[1] = system: C. albicans; assay: Ergosterol test (plasma membrane mechanism), microdilution; assay type: cell-based, Candida albicans; conditions: Candida albicans
Experimental: (2) Ergosterol Test. The test of the compounds was performed using the microdilution technique, as previously described, in the presence of exogenous ergosterol at 400 μg/mL. Nystatin was used as positive control. The plates were incubated at 35 ± 2°C, and readings were taken at 24 and 48 h.

[2] = system: Candida tropicalis CBS 94; assay: MIC by broth microdilution; assay type: cell-based; conditions: CBS94, 24 h, N.A.: no activity, read-out: MIC C. tropicalis CBS 94
Experimental: (§1) Antifungal activity evaluations were performed using references strains of Candida spp., obtained from the Centraalbureau voor Schimmelcultures (CBS, Ultrecht, Netherlands): Candida albicans CBS 562, Candida tropicalis CBS 94, and Candida krusei CBS 573. Nystatin, Tween 80%, DMSO, caspofungin diacetate, and ergosterol were obtained from Sigma-Aldrich® (St. Louis, MO, EUA) and sorbitol (D-sorbitol anhydrous) from INLAB® (São Paulo, Brazil). All assays were performed in triplicate in three independent experiments. The culture medium used for maintenance of the microorganisms was Agar Sabouraud Dextrose (ASD). Inoculants were adjusted to a final concentration of 2.5 × 10^3 CFU/mL (Clinical and Laboratory Standards Institute, 2002). […]
(§2) MIC was determined by the microdilution technique, as previously described by the adapted Clinical and Laboratory Standards Institute (CLSI, 2002) method. The compounds were subjected to the microdilution technique in 96-well plates, with U bottom. The samples were dissolved with DMSO and sterile distilled water (up to 1.0 mL). Through serial dilutions, concentrations of the evaluated compounds ranging from 1000 μg/mL to 7.8 μg/mL. The culture sterility medium, the evaluated substances, and the microbial growth were carried out in parallel. The plates were closed and subjected to a temperature of 35 ± 2°C for 24 h. 1% TTC (2,3,5-triphenyl tetrazolium chloride, Sigma-Aldrich®, St. Louis, MO, EUA) was added to each well to confirm the presence of viable microorganisms. MIC was defined as the lowest concentration of the test substance that inhibits visible microbial growth.

[3] = system: Candida krusei CBS 573; assay: MIC by broth microdilution; assay type: cell-based; conditions: Pichia kudriavzevii, CBS573, 24 h, N.A.: no activity, read-out: MIC C. krusei CBS 573
Experimental: as §1, §2

[4] = system: Candida albicans CBS 562; assay: MIC by broth microdilution; assay type: cell-based; conditions: Candida albicans, CBS562, 24 h, N.A.: no activity, read-out: MIC C. albicans CBS 562
Experimental: as §1, §2

[5] = system: MRC5; assay: Cytotoxicity assay, alamar blue test (healthy cell line); assay type: cell-based, human; conditions: Homo sapiens, MRC5, 72 h, value (95% confidence interval)
Experimental: (§3) HepG2 cells (human hepatocellular carcinoma), HCT116 (human colon carcinoma), HL-60 (human promyelocytic leukemia), and MRC5 (human lung fibroblast) obtained from the ATCC (Manassas, VA, USA) were used. Cells were cultured in cell culture bottles (75 cm 3, 250 mL volume), and media used were RPMI 1640 and supplemented with 10% fetal bovine serum. Cells were maintained in incubators with 5% CO2 atmosphere at 37°C. Cellular growth was monitored daily with the use of an inversion microscope. The medium was changed whenever cell growth reached the necessary confluence for nutrient renewal. For the maintenance of adhered cells, trypsin (0.25%) was used for the cells to detach from the walls of the bottles.
(§4) To assess the cytotoxicity of the substances, the alamar blue test was performed after 72 h of exposure with the test substances. Alamar blue, known as resazurin [62], is a fluorescent/colorimetric indicator with redox properties. The reduction in alamar blue reflects cell proliferation. This was initially used to indicate cell growth and/or viability in monitoring lymphocyte proliferation and currently has several applications. Initially, cells were plated in 96-well plates (100 μL/well of a solution of 0.3 × 10^6 cells/mL for cells in suspension and 0.7 × 10^5 cells/mL for adhered cells). After 24 h of incubation, the test substances dissolved in DMSO were added to each well and incubated for 72 h. Doxorubicin was used as a positive control. The negative control received the same amount of DMSO. Four hours before the end of the incubation period, 20 μL of the stock solution (0.312 mg/mL) of alamar blue (resazurin) was added to each well. Absorbances were measured at wavelengths of 570 nm (reduced) and 600 nm (oxidized) using a plate reader.

[6] = system: C. albicans CBS 562; assay: Sorbitol assay (cell wall mechanism), microdilution; assay type: cell-based, Candida albicans; conditions: Candida albicans, CBS562, C. albicans CBS 562
Experimental: (1) Sorbitol Assay. The microdilution technique was performed in the presence of sorbitol (D-sorbitol, anhydrous) (INLAB laboratory), to determine the mode of action of the compounds on the cell wall of C. albicans CBS 562. For this test, the inoculum was prepared with sorbitol to a final concentration of 0.8 M. The plates were incubated at 35 ± 2°C, and readings were taken 24 h and 48 h after incubation. Caspofungin was used as positive control at an initial concentration of 5 mg/mL [68–70].

[7] = system: Candida strains (Candida albicans, C. tropicalis, and C. krusei); assay: Antifungal evaluation (MIC/MFC), statements for all Candida strains; assay type: cell-based, Candida spp.; conditions: Candida strains; read-out: bioactivity category by MIC
Experimental: The antifungal activity (Table 2) of the ten amides was assessed via the minimum inhibitory concentration (MIC) which was determined using the microdilution methods against three species of Candida strains (Candida albicans, C. tropicalis, and C. krusei).
as §1, §2
(§5) The minimum fungicide concentration (MFC) of the compounds was obtained after the interpretation of the MIC. Three (3) aliquots of 30 μL of supernatant were removed from the wells (where complete inhibition of fungal growth was analyzed) and placed in Petri dishes containing 15 mL of agar Sabouraud dextrose. The plates were incubated at 35 ± 2°C for 24 h for visual counting of colony forming units.

[8] = system: Candida tropicalis CBS 94; assay: Minimum fungicide concentration (MFC); assay type: cell-based
Experimental: as §1
as §5, with “units. To determine whether the compounds had fungistatic (MFC/MIC ≥ 4) or fungicidal (MFC/MIC < 4) activity, the MFC/MIC ratio was calculated.” for “units.”

[9] = system: Candida krusei CBS 573; assay: Minimum fungicide concentration (MFC); assay type: cell-based
Experimental: as §1
as §5, with “units. To determine whether the compounds had fungistatic (MFC/MIC ≥ 4) or fungicidal (MFC/MIC < 4) activity, the MFC/MIC ratio was calculated.” for “units.”

[10] = system: Candida albicans CBS 562; assay: Minimum fungicide concentration (MFC); assay type: cell-based
Experimental: as §1
as §5, with “units. To determine whether the compounds had fungistatic (MFC/MIC ≥ 4) or fungicidal (MFC/MIC < 4) activity, the MFC/MIC ratio was calculated.” for “units.”

[11] = system: HCT116; assay: Cytotoxicity assay, alamar blue test; assay type: cell-based, human; conditions: Homo sapiens, HCT-116, 72 h, value (95% confidence interval)
Experimental: as §3, §4

[12] = system: HL-60; assay: Cytotoxicity assay, alamar blue test; assay type: cell-based, human; conditions: Homo sapiens, HL-60, 72 h, value (95% confidence interval), read-out: IC50 HL60
Experimental: as §3, §4

[13] = system: HepG2 cells; assay: Cytotoxicity assay, alamar blue test; assay type: cell-based, human; conditions: Homo sapiens, HepG2, 72 h, value (95% confidence interval)
Experimental: as §3, §4

[14] = ≥ 4 fungistatic or <4 fungicide

melting point: 172 to 175 °C
MIC ([1]; absence of ergosterol, read-out: MIC Without ergosterol): 62.2 µg/mL (≈ 190 µM)
MIC ([1]; exogenous ergosterol at 400 μg/mL, read-out: MIC With ergosterol): 62.2 µg/mL (≈ 190 µM)
MIC [2]: 500 µg/mL (≈ 1530 µM)
MIC [3]: 62.5 µg/mL (≈ 191 µM)
MIC [4]: 62.5 µg/mL and 190 µM
MIC ([6]; absence of sorbitol, read-out: MIC Without sorbitol): 15.6 µg/mL (≈ 47.7 µM)
MIC ([6]; sorbitol 0.8 M, read-out: MIC With sorbitol): > 1000 µg/mL
MIC [7]: 26 to 125 µg/mL (≈ 79.4 to 382 µM)
Structure (SMILES): COc1cc(C=CC(=O)NCc2ccc3c(c2)OCO3)ccc1O [Compound 11]
IC50 [5]: > 25 µg/mL and > 76.4 µM
MFC ([8]; Candida tropicalis, CBS94, N.A.: no activity, read-out: MFC C. tropicalis CBS 94): 500 µg/mL and 1520 µM
MIC/MFC reason C. tropicalis CBS 94 [8, 14]: 1
MFC ([9]; Pichia kudriavzevii, CBS573, N.A.: no activity, read-out: MFC C. krusei CBS 573): 62.5 µg/mL and 190 µM
MIC/MFC reason C. krusei CBS 573 [9, 14]: 1
MFC ([10]; Candida albicans, CBS562, N.A.: no activity, read-out: MFC C. albicans CBS 562): 125 µg/mL and 380 µM
MIC/MFC reason C. albicans CBS 562 [10, 14]: 2
IC50 [11]: > 25 µg/mL and > 76.4 µM
IC50 [12]: 18.8 µg/mL and 57.4 µM
IC50 [13]: > 25 µg/mL and > 76.4 µM
